Experimental data taken from article PMC8588310, “Identification and Preliminary Structure-Activity Relationship Studies of 1,5-Dihydrobenzo[e][1,4]oxazepin-2(3H)-ones That Induce Differentiation of Acute Myeloid Leukemia Cells In Vitro” (Molecules, 2021).
pEC50, pIC50: −log10 of the molar value. In brackets after ≈: the same amount, converted by molar mass.

Legend:
HL-60 cells = experiment: CD11b expression assay by flow cytometry in HL-60 cells; type: cell-based, human; conditions: for EC50: Homo sapiens, HL-60, 96 h, 4-day (96 h) treatment, CD11b upregulation, read-out: EC50 [nM], %CD11b response in HL60 cells; for LipE (lipophilic efficiency): LipE = -LogEC50-cLogP, EC50 of CD11b assay in HL-60; for Activity in the CD11b assay: concentration-response
Method: (§1) Cells were treated with 1000 structurally diverse small molecules selected from a commercial library. A single point testing concentration of 10 µM was used. After 4 days, cells were stained with a CD11b antibody and analysed using flow cytometry. Compounds upregulating CD11b expression greater than 10% in at least three of the cell lines were considered as potential hits. Hit confirmation was undertaken as follows: first, the hit was re-tested at 10 µM both with the CD11b antibody and an isotype control to account for nonspecific binding. Secondly, the effect of the hit on cell proliferation and viability was evaluated through staining with DAPI to evaluate the number of dead cells, and with acridine orange to detect total cell numbers. Thirdly, the induction of differentiation caused by the compounds was confirmed through morphology assessment with Giemsa staining. Finally, the molecule was resynthesised and fully characterised to confirm structural authenticity. This fresh sample was then retested in the CD11b assay to generate a concentration-response curve. The study of proliferation and morphology was performed on a panel of six cell lines: HL-60, THP-1, OCI-AML3, KG-1, Kasumi-1 and ME-1.
Thus, structure-activity relationship studies were initiated, where the potency of the new analogues was evaluated through concentration-response testing using the CD11b assay in HL-60 cells. Lipophilic efficiency (LipE), which also accounts for lipophilicity, was also used to compare the quality of the analogues. Even though multiple parameters can influence activity in a cell-based assay, LipE is a useful guide to compare analogues.
PE mouse-anti-human-CD11b/Mac-1 (ICRF44, Cat 555388) and PE-mouse-IgG1-κ-isotype control (MOPC-21, Cat 555749) were purchased from BD Bioscience. Cells were suspended in 100 μL growth media (RPMI + 10% FBS + 1% L-glutamine) at a density of 2 × 10^4 cells/well of a V-bottom 96 well plate (Corning, Cat 3894) and grown for 96 h in the presence of compound at the required concentration. After 96 h, the plate was centrifuged, media was removed, and cells were resuspended in 50 µL of blocking buffer (IMDM, no phenol red + 10% FBS) containing 2.5 μL of either CD11b or isotype control antibody and incubated on ice in the dark for 20 min. Cells were washed twice in 200 μL of staining buffer (IMDM, no phenol red + 1% FBS) before being resuspended in 200 μL of staining buffer containing 1 μg/mL of DAPI to help identify dead cells. Flow cytometry data were collected on an Attune NxT and analysed using the Attune NxT software (Life Technologies).

[1] = Metabolic stability in mouse S9 fraction; type: in vitro ADME; conditions: ER = Clint/species flow rate (mice: 90 mL/min/kg)
Method: (§2) Determination of semi-thermodynamic solubility, metabolic stability in S9 fraction, Caco-2 permeability and PPB were performed by Cyprotex Ltd. (www.cyprotex.com, accessed on 22 October 2021) using their standard assays and as described on their website.
[22] Extraction ratio (ER) is calculated as the measured intrinsic clearance over the hepatic blood flow of each species (90 mL/min/kg for mice). It has the advantage over other parameters (half-life, clearance) that it is independent of the species used

[2] = Semi-thermodynamic aqueous solubility; type: physicochemical; conditions: thermodynamic from solid
Method: as §2

[3] = Single dose PK study in male CD-1 mice; type: in vivo, mouse; conditions: for bioavailability / half-life / Cmax / Tmax / Vd/F: mouse, whole blood; for bioavailability: 3 mg/kg po vs 0.33 mg/kg iv; for half-life: single dose 3 mg/kg po and 0.33 mg/kg iv, route of parameter not given; for half-life / Cmax / Tmax / Vd/F / Clobs / Clobs/F: blood; for Cmax / Tmax / Vd/F / Clobs/F: single dose 3 mg/kg po; for Vd/F: read-out: Vz/F; for Clobs: single dose 0.33 mg/kg iv
Text: In order to undertake a preliminary assessment of the pharmacokinetic (PK) profile of this compound class, three compounds were deemed to have sufficient intrinsic potency, solubility and in vitro metabolic stability properties to progress into a single dose in vivo PK study. […] […] […] Nonetheless, the clearance of the three compounds was high to moderate, and at this dose the in vitro EC50 was not reached.
Male CD-1 mice were used for the PK studies, with three for each treatment. […] Blood concentration was measured by LC-MS/MS over 24 h.

porcine neuronal tubulin = molecular target: T1, porcine neuronal tubulin (Sus scrofa, UniProt P02550+P02554); experiment: Microtubule (tubulin) polymerisation cell-free assay; type: biochemical
T1 construct: performed using porcine neuronal tubulin (Cytoskeleton, Inc, Denver, CO, USA, BK006P); purchased Cytoskeleton, Inc BK006P; host or cells: porcine brain (neuronal) tissue
Method: The microtubule polymerisation assay was performed using porcine neuronal tubulin (Cytoskeleton, Inc, Denver, CO, USA, BK006P) as an adaptation of the original method of Shelanski et al. and Lee et al. at Cytoskeleton, Inc.

OCI-AML3 cells = experiment: CD11b expression assay by flow cytometry in OCI-AML3 cells; type: cell-based; conditions: Homo sapiens, OCI-AML-3, 96 h, 4-day treatment, resynthesised sample
Method: as §1, with “The study of proliferation and morphology was performed on a panel of six cell lines: HL-60, THP-1, OCI-AML3, KG-1, Kasumi-1 and ME-1.” left out
(§3) PE mouse-anti-human-CD11b/Mac-1 (ICRF44, Cat 555388) and PE-mouse-IgG1-κ-isotype control (MOPC-21, Cat 555749) were purchased from BD Bioscience. […] Flow cytometry data were collected on an Attune NxT and analysed using the Attune NxT software (Life Technologies).

THP-1 cells = experiment: CD11b expression assay by flow cytometry in THP-1 cells; type: cell-based; conditions: Homo sapiens, 96 h, 4-day treatment, resynthesised sample
Method: as §1, with “The study of proliferation and morphology was performed on a panel of six cell lines: HL-60, THP-1, OCI-AML3, KG-1, Kasumi-1 and ME-1.” left out
as §3

[4] = tested on: HL-60, THP-1, OCI-AML3, KG-1, Kasumi-1 and ME-1; experiment: Cell counts and viability (acridine orange / DAPI); type: cell-based, human; conditions: 10 µM, 4 days
Method: as §1, with “The study of proliferation and morphology was performed on a panel of six cell lines: HL-60, THP-1, OCI-AML3, KG-1, Kasumi-1 and ME-1.” left out
Solution 13 containing acridin orange and DAPI was purchased from ChemoMetec (Cat 910-3013). After the appropriate cell treatment, one volume of solution 13 was added into 19 volumes of the premixed cell suspension and analysed using the NucleoCounter® NC-300^TM (ChemoMetec).

[5] = tested on: HL-60, THP-1, OCI-AML3, KG-1, Kasumi-1 and ME-1; experiment: Morphology assessment of stained cytospins; type: cell-based, human; conditions: 10 µM, 4-day treatment, six cell lines
Method: as §1
Cells were prepared in staining buffer (IMDM, no phenol red + 2% FBS) at a concentration of approximately 1 × 10^5 cells/mL. […]

Caco-2 permeability = type: in vitro ADME; conditions: human
Method: as §2

Plasma protein binding = type: in vitro ADME; conditions: % unbound, read-out: PPB, unbound
Method: as §2

DHODH = DHODH (Homo sapiens, UniProt Q02127); experiment: Test against DHODH; type: biochemical; conditions: testing concentrations from 1 to 10 μM
FLT3 = molecular target: T2, FLT3 (Homo sapiens, UniProt P36888); experiment: Test against FLT3; type: biochemical; conditions: testing concentrations from 1 to 10 μM
T2 sequence (P36888 27-993): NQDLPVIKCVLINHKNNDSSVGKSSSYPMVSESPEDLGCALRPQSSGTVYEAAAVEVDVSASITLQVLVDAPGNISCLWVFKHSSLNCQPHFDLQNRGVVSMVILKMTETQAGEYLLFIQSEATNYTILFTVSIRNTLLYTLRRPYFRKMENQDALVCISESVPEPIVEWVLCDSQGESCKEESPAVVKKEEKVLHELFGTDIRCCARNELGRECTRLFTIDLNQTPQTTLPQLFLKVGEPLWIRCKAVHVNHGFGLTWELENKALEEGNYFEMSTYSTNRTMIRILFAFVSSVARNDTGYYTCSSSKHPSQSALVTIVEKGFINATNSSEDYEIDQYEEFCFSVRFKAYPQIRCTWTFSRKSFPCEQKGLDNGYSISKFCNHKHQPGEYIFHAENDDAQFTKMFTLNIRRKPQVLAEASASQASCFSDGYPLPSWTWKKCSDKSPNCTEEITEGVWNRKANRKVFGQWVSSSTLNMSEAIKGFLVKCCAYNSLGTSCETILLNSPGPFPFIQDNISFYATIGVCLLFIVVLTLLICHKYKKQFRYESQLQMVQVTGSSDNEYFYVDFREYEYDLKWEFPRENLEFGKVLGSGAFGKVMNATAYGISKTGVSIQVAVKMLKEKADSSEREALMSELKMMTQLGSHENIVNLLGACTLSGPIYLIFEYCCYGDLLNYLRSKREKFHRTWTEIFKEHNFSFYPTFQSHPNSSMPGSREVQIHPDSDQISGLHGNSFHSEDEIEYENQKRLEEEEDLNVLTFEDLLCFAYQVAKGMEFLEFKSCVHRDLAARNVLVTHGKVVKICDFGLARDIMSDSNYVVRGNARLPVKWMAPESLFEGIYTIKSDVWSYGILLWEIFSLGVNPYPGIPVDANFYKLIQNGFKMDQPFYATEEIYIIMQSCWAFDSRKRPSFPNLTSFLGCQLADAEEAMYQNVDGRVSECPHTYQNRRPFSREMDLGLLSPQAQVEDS

panel of kinases = experiment: Test against a panel of kinases; type: biochemical; conditions: testing concentrations from 1 to 10 μM
[6] = aqueous (buffer or water not specified)
[7] = aqueous medium (buffer not specified)

T1 sequence (P02550 whole entry): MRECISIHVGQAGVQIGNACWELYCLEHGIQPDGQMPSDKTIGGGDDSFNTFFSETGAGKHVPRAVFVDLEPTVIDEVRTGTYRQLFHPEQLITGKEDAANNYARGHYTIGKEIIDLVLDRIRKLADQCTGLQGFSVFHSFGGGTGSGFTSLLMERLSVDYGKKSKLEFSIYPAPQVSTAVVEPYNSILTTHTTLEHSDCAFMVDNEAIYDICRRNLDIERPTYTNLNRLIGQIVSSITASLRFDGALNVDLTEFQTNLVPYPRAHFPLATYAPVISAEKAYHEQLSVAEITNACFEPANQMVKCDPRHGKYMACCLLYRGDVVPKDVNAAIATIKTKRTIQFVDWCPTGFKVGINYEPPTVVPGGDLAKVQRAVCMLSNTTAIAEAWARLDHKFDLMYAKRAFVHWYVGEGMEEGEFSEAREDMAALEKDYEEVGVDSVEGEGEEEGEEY
T1 sequence (P02554 whole entry): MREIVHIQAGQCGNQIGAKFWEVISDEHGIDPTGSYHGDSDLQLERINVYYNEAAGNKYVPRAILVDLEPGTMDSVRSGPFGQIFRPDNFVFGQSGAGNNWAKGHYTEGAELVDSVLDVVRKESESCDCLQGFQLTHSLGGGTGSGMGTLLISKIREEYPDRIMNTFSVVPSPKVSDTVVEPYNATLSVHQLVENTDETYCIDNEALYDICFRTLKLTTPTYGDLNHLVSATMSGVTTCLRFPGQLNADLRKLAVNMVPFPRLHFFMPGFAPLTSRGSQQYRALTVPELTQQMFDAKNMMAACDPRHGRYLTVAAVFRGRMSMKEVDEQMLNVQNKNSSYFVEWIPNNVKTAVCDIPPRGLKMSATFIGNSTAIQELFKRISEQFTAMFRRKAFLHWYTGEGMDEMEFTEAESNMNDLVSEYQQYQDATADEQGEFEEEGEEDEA
Sequence of DHODH (Q02127 whole entry, species assumed): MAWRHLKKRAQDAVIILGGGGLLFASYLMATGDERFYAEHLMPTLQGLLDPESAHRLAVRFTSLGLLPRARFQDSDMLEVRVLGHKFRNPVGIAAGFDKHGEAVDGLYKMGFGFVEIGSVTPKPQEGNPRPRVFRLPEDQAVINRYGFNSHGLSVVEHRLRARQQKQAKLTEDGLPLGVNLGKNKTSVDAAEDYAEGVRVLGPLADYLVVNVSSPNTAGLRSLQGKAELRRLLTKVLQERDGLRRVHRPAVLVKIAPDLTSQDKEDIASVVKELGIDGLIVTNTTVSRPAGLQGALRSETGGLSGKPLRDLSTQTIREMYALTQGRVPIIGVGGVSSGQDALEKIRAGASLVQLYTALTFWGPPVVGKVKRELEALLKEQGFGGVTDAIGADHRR

## CS(=O)(=O)Nc1cccc(-c2ccc3c(c2)N(CC(F)(F)F)C(=O)COC3)c1 [Compound 11, N-(3-(2-Oxo-1-(2,2,2-trifluoroethyl)-1,2,3,5-tetrahydrobenzo[e][1,4]oxazepin-8-yl)phenyl)methanesulfonamide]
HL-60 cells; HL-60 cells
  EC50: 1900 nM
HL-60 cells
  LipE (lipophilic efficiency): 3.8
[1]
  ER in mS9 (extraction ratio): 0.05
[2]; [6]
  solubility thermodynamic: 33 µM (≈ 13.7 µg/mL)
[3]
  bioavailability: 38%
  half-life: 5.8 h
  Cmax: 160 ng/mL
  Tmax: 0.33 h
  Vd/F: 73 L/kg
  Clobs: 61 mL/min/kg
  Clobs/F: 159 mL/min/kg

## CC(C)N1C(=O)COCc2ccc(-c3ccccc3NS(C)(=O)=O)cc21 [Compound 25, N-(2-(1-Isopropyl-2-oxo-1,2,3,5-tetrahydrobenzo[e][1,4]oxazepin-8-yl)phenyl)methanesulfonamide]
HL-60 cells; HL-60 cells
  Activity in the CD11b assay: inactive
  EC50: > 30000 nM
Porcine neuronal tubulin; testing concentrations of up to 100 μM
  Effect on polymerisation of tubulin: did not have an effect

## COc1ccc(-c2ccc3c(c2)N(C(C)C)C(=O)COC3)cc1NS(C)(=O)=O [Compound 37, N-(5-(1-Isopropyl-2-oxo-1,2,3,5-tetrahydrobenzo[e][1,4]oxazepin-8-yl)-2-methoxyphenyl)methanesulfonamide]
HL-60 cells; HL-60 cells
  EC50: 1200 nM
HL-60 cells
  LipE (lipophilic efficiency): 4.2
[1]
  ER in mS9 (extraction ratio): 1
[2]; aqueous (not further specified)
  solubility thermodynamic: > 200 µM

## CS(=O)(=O)Nc1cccc(-c2ccc3c(c2)N(CC2CC2)C(=O)OC3)c1 [Compound 41, N-(3-(1-(Cyclopropylmethyl)-2-oxo-1,4-dihydro-2H-benzo[d][1,3]oxazin-7-yl)phenyl)methanesulfonamide]
HL-60 cells; CD11b EC50 in HL-60, vs OXS003976
  Loss in activity compared to OXS003976: 15 fold
HL-60 cells; HL-60 cells
  EC50: 15000 nM
HL-60 cells
  LipE (lipophilic efficiency): 2.5
[1]
  ER in mS9 (extraction ratio): 0.54
[2]; [7]
  solubility thermodynamic: 77 µM (≈ 28.7 µg/mL)

## CC(C)N1C(=O)COCc2ncc(-c3cccc(NS(C)(=O)=O)c3)cc21 [Compound 42, N-(3-(1-Isopropyl-2-oxo-1,2,3,5-tetrahydropyrido[3,2-e][1,4]oxazepin-8-yl)phenyl)methanesulfonamide]
HL-60 cells; HL-60 cells
  Activity in the CD11b assay: retained weak activity
  EC50: 2200 nM
HL-60 cells
  LipE (lipophilic efficiency): 4.9
[1]
  ER in mS9 (extraction ratio): 0.09
[2]; [7]
  solubility thermodynamic: > 200 µM

## CS(=O)(=O)Nc1cccc(-c2ccc3c(c2)N(CC2CC2)C(=O)COC3)c1 [OXS003976, N-(3-(1-(Cyclopropylmethyl)-2-oxo-1,2,3,5-tetrahydrobenzo[e][1,4]oxazepin-8-yl)phenyl)methanesulfonamide]
HL-60 cells; 10 µM, 4-day treatment, HL-60 cells
  CD11b expression vs isotype control: upregulated CD11b expression, but not the isotype control
HL-60 cells; HL-60 cells
  EC50: 770 nM
HL-60 cells
  LipE (lipophilic efficiency): 4.3
OCI-AML3 cells
  pEC50: 6.02
THP-1 cells
  pEC50: 5.47
[1]
  ER in mS9 (extraction ratio): 0.54
[2]; [6]
  solubility thermodynamic: > 200 µM
[4]
  Cell proliferation and viability: decreased cell proliferation and viability
[5]
  Cell morphology: induced morphological changes consistent with differentiation

## CC(C)N1C(=O)COCc2ccc(-c3cccc(NS(C)(=O)=O)c3)cc21 [OXS007002, N-(3-(1-Isopropyl-2-oxo-1,2,3,5-tetrahydrobenzo[e][1,4]oxazepin-8-yl)phenyl)methanesulfonamide]
HL-60 cells; HL-60 cells
  EC50: 620 nM
HL-60 cells
  LipE (lipophilic efficiency): 4.5
[1]
  ER in mS9 (extraction ratio): 0.33
[2]; [6]
  solubility thermodynamic: > 200 µM
Caco-2 permeability; Caco-2, read-out: EfR, efflux ratio (Caco-2)
  efflux ratio: 1.3
Caco-2 permeability; Caco-2 cell permeability
  Papp: 31 ×10⁻⁶ cm/s
Plasma protein binding
  fraction unbound: 0.11
[3]
  bioavailability: 28%
  half-life: 4.9 h
  Cmax: 104 ng/mL
  Tmax: 0.42 h
  Vd/F: 101 L/kg
  Clobs: 73 mL/min/kg
  Clobs/F: 258 mL/min/kg
Porcine neuronal tubulin; read-out: IC50, inhibition of tubulin polymerisation
  pIC50: 5.44
DHODH
  Activity against DHODH: inactive
FLT3
  Activity against FLT3: inactive
Panel of kinases
  Activity against a panel of kinases: inactive
